Test results as given in patent US20170121344A1 (Siga Technologies, Inc., priority 2009, published 2017).
Read-outs that look alike come from different tables or passages of the source.

Columns and labels:
[1] = system: Dengue-2 (Strain New Guinea C); experiment: Viral yield assay against Dengue-2 in Vero cells; type: cell-based, Dengue virus; details: Dengue virus, read-out: Activity (EC50 in μM) DENV-2
Outline: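 Vero cells were infected with dengue virus at an MOI of 0.1, treated with compound or DMSO vehicle, and kept at 37° C. Supernatant virus was harvested 48 hours post infection and titered on Vero cells, with EC50 derived from yield reduction.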

DENV-1 = experiment: Viral yield assay against DENV-1 in Vero cells; type: cell-based; details: Dengue virus
Method: (§1) Compounds that were active in the primary screen were tested for activity in viral yield assays. […] Vero cells in 12-well plates were infected with dengue-2 virus at a multiplicity of infection (MOI) of 0.1, treated with compound (or DMSO as a control), incubated at 37° C., harvested 48 hours post infection and titered on Vero cells as described above. The EC50 was calculated through ExcelFit. Activities against other serotypes of dengue virus were determined in a similar way.

DENV-4 = experiment: Viral yield assay against DENV-4 in Vero cells; type: cell-based; details: Dengue virus
Method: as §1

DENV-3 = experiment: Viral yield assay against DENV-3 in Vero cells; type: cell-based; details: Dengue virus
Method: as §1

[2] = DENV2, viral yield assay, Vero cells, MOI 0.1, 48 hours post infection

Row | SMILES | EC50 [1, 2] [µM] | EC50 (DENV-1; DENV1, viral yield assay) [µM] | EC50 (DENV-4; DENV4, viral yield assay) [µM] | EC50 (DENV-3; DENV3, viral yield assay) [µM] | EC50 ([1]; DENV2, Vero cells) [µM] | EC50 (DENV-1; DENV1) [µM] | EC50 (DENV-4; DENV4) [µM] | EC50 (DENV-3; DENV3) [µM] | EC50 ([1]; DENV2, Vero, 48 h) [µM]
1 | COc1ccc(NC(=O)c2sc3nc(-c4ccc5c(c4)OCO5)ccc3c2N)c(OC)c1 [Compound 651, 3-amino-6-(1,3-benzodioxol-5-yl)-N-(2,4-dimethoxyphenyl)thieno[2,3-b]pyridine-2-carboxamide] | < 5 | < 5 | < 5 | < 5 |  |  |  |  | 
2 | Nc1c(C(=O)Nc2cc(Cl)cc(Cl)c2)sc2nc(-c3cccs3)ccc12 [Compound 431, 3-amino-N-(3,5-dichloropehnyl)-6-(2-thienyl)thieno[2,3-b]pyridine-2-carboxamide] | < 5 | < 5 | < 5 | < 5 |  |  |  |  | 
3 | O=C(O)CNc1c(C(=O)Nc2cccc(C(F)(F)F)c2)sc2nc(-c3cccs3)ccc12 [Compound 305, 2-[[6-(2-thienyl)-2-[[3-(trifluoromethyl)phenyl]carbamoyl]thieno[2,3-b]pyridin-3-yl]amino]acetic acid] |  |  |  |  | < 5 | < 5 | < 5 | 5 to 25 | 
4 | COc1ccc(-c2ccc3c(N)c(C(=O)Nc4ccc(C)c(F)c4)sc3n2)cc1OC [Compound 533, 3-amino-6-(3,4-dimethoxyphenyl)-N-(3-fluoro-4-methyl-phenyl)thieno[2,3-b] pyridine-2-carboxamide] | < 5 | < 5 | < 5 | < 5 |  |  |  |  | 
5 | CCc1cccc(NC(=O)c2sc3nc(-c4ccc(F)cc4)ccc3c2N)c1 [Compound 609, 3-amino-N-(3-ethylphenyl)-6-(4-fluorophenyl)thieno[2,3-b]pyridine-2-carboxamide] | < 5 | < 5 | 5 to 25 | 5 to 25 |  |  |  |  | 
6 | Nc1c(C(=O)Nc2ccc(F)c(F)c2)sc2nc(-c3ccc(F)cc3)ccc12 [Compound 615, 3-amino-N-(3,4-difluorophenyl)-6-(4-fluorophenyl)thieno[2,3-b]pyridine-2-carboxamide] | < 5 | < 5 | < 5 | < 5 |  |  |  |  | 
7 | Cc1ccc(NC(=O)c2sc3nc(-c4ccc(F)cc4)ccc3c2N)cc1F [Compound 612, 3-amino-N-(3-fluoro-4-methyl-phenyl)-6-(4-fluorophenyl)thieno[2,3-b]pyridine-2-carboxamide] | < 5 | < 5 | < 5 | < 5 |  |  |  |  | 
8 | Nc1c(C(=O)Nc2ccc(F)c(F)c2)sc2nc(-c3cccs3)ccc12 [Compound 461, 3-amino-N-(3,4-difluorophenyl)-6-(2-thienyl)thieno[2,3-b]pyridine-2-carboxamide] | < 5 | < 5 | < 5 | < 5 |  |  |  |  | 
9 | Cc1ccc(NC(=O)c2sc3nc(-c4ccc5c(c4)OCO5)ccc3c2N)c(Br)c1 [Compound 514, 3-amino-6-(1,3-benzodioxol-5-yl)-N-(2-bromo-4-methyl-phenyl)thieno[2,3-b] pyridine-2-carboxamide] | < 5 | < 5 | < 5 | < 5 |  |  |  |  | 
10 | Nc1c(C(=O)Nc2ccc(OC(F)(F)F)cc2)sc2nc(-c3cccs3)ccc12 [Compound 428, 3-amino-6-(2-thienyl)-N-[4-(trifluoromethoxy)phenyl]thieno[2,3-b] pyridine-2-carboxamide] | < 5 | < 5 | < 5 | < 5 |  |  |  |  | 
11 | CN1CCc2nc3sc(C(=O)Nc4ccc(OC(F)(F)F)cc4)c(NCC(=O)O)c3cc2C1 [Compound 303, 2-[[6-methyl-2-[[4-(trifluoromethoxy)phenyl]carbamoyl]-7,8-dihydro-5H-thieno[2,3-b][1,6]naphthyridin-3-yl]amino]acetic acid] |  |  |  |  | < 5 | 5 to 25 | < 5 | 5 to 25 | 
12 | NCCNc1c(C(=O)Nc2cccc(C(F)(F)F)c2)sc2nc(-c3cccs3)ccc12 [Compound 304, 3-(2-aminoethylamino)-6-(2-thienyl)-N-[3-(trifluoromethyl)phenyl]thieno[2,3-b]pyridine-2-carboxamide] |  |  |  |  | < 5 | < 5 | < 5 | < 5 | 
13 | Cc1ccc(-c2ccc3c(N)c(C(=O)Nc4ccccc4Cl)sc3n2)cc1 [Compound 650, 3-amino-N-(2-chlorophenyl)-6-(p-tolyl) thieno[2,3-b]pyridine-2-carboxamide] | < 5 | < 5 | < 5 | < 5 |  |  |  |  | 
14 | Nc1c(C(=O)Nc2nnc(-c3ccccc3)s2)sc2nc(-c3cccs3)ccc12 [Compound 488, 3-amino-N-(5-phenyl-1,3,4-thiadiazol-2-yl)-6-(2-thienyl)thieno[2,3-b]pyridine-2-carboxamide] | < 5 | < 5 | < 5 | < 5 |  |  |  |  | 
15 | COc1ccc(-c2ccc3c(N)c(C(=O)Nc4cccc(Br)c4)sc3n2)cc1 [Compound 454, 3-amino-N-(3-bromophenyl)-6-(4-methoxyphenyl)thieno[2,3-b]pyridine-2-carboxamide] | < 5 | < 5 | < 5 | < 5 |  |  |  |  | 
16 | Cc1ccc(C)c(NC(=O)c2sc3nc(-c4cccs4)ccc3c2N)c1 [Compound 438, 3-amino-N-(2,5-dimethylphenyl)-6-(2-thienyl)thieno[2,3-b]pyridine-2-carboxamide] | < 5 | < 5 | < 5 | < 5 |  |  |  |  | 
17 | Nc1c(C(=O)Nc2ccc(F)cc2)sc2nc(-c3ccc4c(c3)OCO4)ccc12 [Compound 603, 3-amino-6-(1,3-benzodioxol-5-yl)-N-(4-fluorophenyl)thieno[2,3-b]pyridine-2-carboxamide] |  |  | < 5 |  |  |  |  |  | < 5
18 | O=C(O)CNc1c(C(=O)Nc2nnc(-c3ccccc3)s2)sc2nc(Cl)ccc12 [Compound 299, 2-[[6-chloro-2-[(5-phenyl-1,3,4-thiadiazol-2-yl)carbamoyl]thieno[2,3-b]pyridin-3-yl]amino]acetic acid] |  |  |  |  | 5 to 25 | 5 to 25 | 5 to 25 |  | 
19 | Nc1c(C(=O)Nc2ccc(F)cc2Cl)sc2nc(-c3ccc(F)cc3)ccc12 [Compound 618, 3-amino-N-(2-chloro-4-fluoro-phenyl)-6-(4-fluorophenyl)thieno[2,3-b]pyridine-2-carboxamide] | < 5 | < 5 |  |  |  |  |  |  | 
20 | COc1cccc(-c2ccc3c(N)c(C(=O)Nc4ccc(C)c(Br)c4)sc3n2)c1 [Compound 559, 3-amino-N-(3-bromo-4-methyl-phenyl)-6-(3-methoxyphenyl)thieno[2,3-b] pyridine-2-carboxamide] | < 5 |  | < 5 | < 5 |  |  |  |  | 
21 | COc1ccc(-c2ccc3c(N)c(C(=O)Nc4ccc(OC(F)(F)F)cc4)sc3n2)cc1OC [Compound 584, 3-amino-6-(3,4-dimethoxyphenyl)-N-[4-(trifluoromethoxy)phenyl]thieno[2,3-b] pyridine-2-carboxamide] | < 5 |  | < 5 |  |  |  |  |  | 
22 | COc1cccc(-c2ccc3c(N)c(C(=O)N(CCC(=O)O)c4ccc(OC(F)(F)F)cc4)sc3n2)c1 [Compound 354, 3-[N-[3-amino-6-(3-methoxy-phenyl)thieno[2,3-b]pyridine-2-carbonyl]-4-(tri-fluoro-methoxy)anili-no]propanoic acid] | 5 to 25 |  |  |  |  |  |  |  | 
23 | COc1ccnc2sc(C(=O)Nc3nnc(-c4ccccc4)s3)c(N)c12 [Compound 287, 3-amino-4-methoxy-N-(5-phenyl-1,3,4-thiadiazol-2-yl)thieno[2,3-b]pyridine-2-carboxamide] | 5 to 25 |  |  |  |  |  |  |  | 
